Experimental data taken from patent publication US20100166826A1, “BIODEGRADABLE INTRAVAGINAL DEVICES FOR DELIVERY OF THERAPEUTICS” (University of Uath Research Foundation, priority 2007, published 2010).

Test: release of TMC120 from degradable polyurethane (FIG. 5)
Type: physicochemical
Settings: period of one month; from degradable polyurethane made from terathane-co-(caprolactone), 4,4′-methylenebis-cyclohexane diisocyanate and 1,4-butanediol

**Q.** For `Cc1cc(C)c(Nc2ccnc(Nc3ccc(C#N)cc3)n2)c(C)c1` [TMC120, 4-[4-(mesitylamino)pyrimidin-2-ylamino)-benzonitrile], which “release profile of TMC120” value is on record?
**A.** sustained release profile
